From paper PMC11359296, “Poly(2-Deoxy-2-Methacrylamido-D-Glucose)-Based Complex Conjugates of Colistin, Deferoxamine and Vitamin B12: Synthesis and Biological Evaluation” (Pharmaceutics, 2024)
Structures can show the parent of a compound that is named as a salt. One block for each compound: values may come before it. Where a SMILES comes first, the peptide text is derived from it. Bridges are numbered along the chain shown (N, C = ends). [ ]: non-standard residue; d: D form. The star is where a group is joined. Octanoyl(6-Me) = CCC(C)CCCCC(=O)*; Dab = NCC[C@H](N)C(=O)O

How the values were obtained:
[1] = test system: Human embryonic kidney cells (HEK 293); test: Cytotoxicity, MTT assay; assay type: cell-based; conditions: HEK 293, MTT, 72 h, n = 6
Experimental: Human embryonic kidney cells (HEK 293) purchased from the Cell Culture Collection of the Institute of Cytology RAS (St. Petersburg, Russia) were used to study the cytotoxicity of the conjugates. HEK 293 cells were cultured at 37 °C in a humidified atmosphere containing 5% CO2 in modified Eagle’s nutrient medium (MEM, Gibco, Billings, MT, USA) containing 1% essential amino acids, 1% L-glutamine, 50 μg/mL streptomycin, 50 U/mL penicillin, and 10 vol% thermally inactivated fetal bovine serum (FBS, HyClone, Logan, UT, USA). A total of 10^4 cells/100 µL/well was seeded into an adhesive 96-well plate and cultured for 1 day. After that, the medium was removed, and 100 µL of MEM with various concentrations of the test conjugates (4–1000 μg/mL with respect to the CT content) was added to each well with cells and incubated for 72 h. […] After the removal of the supernatant, formazan crystals produced by the metabolically viable cells were dissolved in DMSO (50 μL/well) and transferred to clean wells, followed by measuring the absorbance of the solutions at 570 nm using a multiwell plate reader (ThermoFisher Multiskan Labsystems, Waltham, MA, USA).
(§1) In the case of the CT release and conjugate stability experiments, each assay was performed in three repeats. […] The cell permeability assay and antimicrobial activity were analyzed with n = 3 and 4, respectively. […]

[2] = Caco-2 cell permeability assay; assay type: in vitro ADME, human; conditions: Caco-2 monolayer, 21 days culture, apical to basolateral; 0.5 mg/mL according to CT content in 0.01 M phosphate buffer pH 7.2; PBS basolateral; 2 h, sampled every 30 min; B12 by spectrophotometry, CT by HPLC; mean, n = 3; read-out: apparent permeability coefficient (Papp)
Experimental: (§2) The human colon adenocarcinoma cells (Caco-2) obtained from the Cell Culture Collection of the Institute of Cytology RAS (St. Petersburg, Russia) were used to study cell permeability. The study was carried out as described elsewhere. Briefly, Caco-2 cells were cultured in Dulbecco’s modified Eagle medium (DMEM, Biolot, St. Petersburg, Russia) containing L-glutamine, streptomycin/penicillin and 10% FBS in cell culture flasks (area 75 cm^2, Jet Biofil, Guangzhou, China) at 37 °C in a CO2 incubator under humidified conditions. The cultured cells were re-seeded into a new cell culture flask (1:6 ratio) when the cells reached 80–90% confluence. […] The vitamin B12 content and the content of B12-containing conjugates equivalent to vitamin B12 were determined spectrophotometrically, and the CT transferred to the lower chamber was determined by HPLC analysis as described in Section 2.2.2.
(§3) The Papp was calculated as follows:(2) Papp=dQ/dt∗1/A∗C0 where Papp is the apparent permeability coefficient (cm/s), dQ/dt is the permeation rate (µg/s), A is the area of the monolayer (0.3 sm^2), and C0 is the concentration of the test substance in the apical chamber at the initial time point (µg/mL).
as §1

[3] = pH 7.4 and 37 °C; cited from earlier work
Experimental: The stability results of PMAG(10)-(DFOA,CT) conjugates with hydrolyzable (aldimine) bonds and reduced aldimine bonds in different media are summarized in Table 4. It was shown that the release in the buffer and the simulated biorelevant medium was consistent. […] Under gastric conditions, the release after 2 h was 20–26%, whereas under intestinal conditions, a release of 6–12% was detected.

P. aeruginosa = conditions: concentration range of 0.25–64 µg/mL; cited from earlier work
Text: The antibacterial activity of free CT and its polymeric conjugates was examined against P. aeruginosa. […] When analyzing the results of the MIC values for the conjugates studied, the following trends can be distinguished.

Caco-2 monolayer = test: Caco-2 cell permeability assay; assay type: in vitro ADME, human; conditions: 21 days culture, apical to basolateral, 0.5 mg/mL according to CT content in 0.01 M phosphate buffer pH 7.2, PBS basolateral, 2 h, sampled every 30 min, B12 by spectrophotometry, CT by HPLC, mean, n = 3
Experimental: as §2, §3, §1

Compound: CCC(C)CCCCC(=O)N[C@@H](CCN)C(=O)N[C@H](C(=O)N[C@@H](CCN)C(=O)N[C@H]1CCNC(=O)[C@H]([C@@H](C)O)NC(=O)[C@H](CCN)NC(=O)[C@H](CCN)NC(=O)[C@H](CC(C)C)NC(=O)[C@@H](CC(C)C)NC(=O)[C@H](CCN)NC1=O)[C@@H](C)O (stereo partly drawn) [CT, Polymyxin E (colistin, CT) sulfate salt] ({Octanoyl(6-Me)}-[Dab]T[Dab][Dab][Dab][dL]L[Dab][Dab]T; lactam 4-C; N-terminus assumed)
concentration up to which no toxicity was found ([1]; 4–1000 μg/mL with respect to the CT content): ≤ 250 µg/mL
cytotoxicity (in words) ([1]; at a concentration of 500 μg/mL (with respect to CT content)): moderate cytotoxicity
Papp A→B [2]: ~3 ×10⁻⁶ cm/s
half-life of CT [3]: 70 h

Compound: CC(=O)N(O)CCCCCNC(=O)CCC(=O)N(O)CCCCCNC(=O)CCC(=O)N(O)CCCCCN [DFOA, deferoxamine methanesulfonate salt]
antibacterial properties against P. aeruginosa (P. aeruginosa): Neither DFOA nor PMAG is known to possess antibacterial properties

apparent permeability coefficient (Papp) (Caco-2 monolayer): ~ 77 × 10^−6 cm/s
Compound: cyanocobalamin [vitamin B12]
